Test results from patent publication US10667517B2, “2-(Het)aryl-substituted fused heterocycle derivatives as pesticides” (BAYER CROPSCIENCE AKTIENGESELLSCHSAFT, priority 2015, dated 2020).

Tests used:
Spodoptera frugiperda = Spodoptera frugiperda - spray test; format: in vivo; details: armyworm caterpillars on maize leaf discs, after 7 days
Description: Spodoptera frugiperda—Spray Test
(§1) • Solvent: 78.0 parts by weight of acetone • 1.5 parts by weight of dimethylformamide • Emulsifier: alkylaryl polyglycol ether
(§2) To produce a suitable active compound preparation, 1 part by weight of active compound is dissolved with the stated parts by weight of solvent and made up with water containing an emulsifier concentration of 1000 ppm until the desired concentration is attained. To produce further test concentrations, the preparation is diluted with emulsifier-containing water.
Leaf discs of maize (Zea mays) are sprayed with an active compound preparation of the desired concentration and, after drying, populated with caterpillars of the armyworm (Spodoptera frugiperda).
After 7 days, the efficacy in % is determined. 100% means that all the caterpillars have been killed; 0% means that no caterpillars have been killed.

[1] = log P (neutral), HPLC on reversed-phase column (C 18), LC-MS neutral range; format: physicochemical; details: pH 7.8, ammonium hydrogencarbonate/acetonitrile; for log P (neutral): HPLC reversed-phase C 18, 55° C.; for chromatographic logP: reversed-phase HPLC column (C 18), pH 7.8, HPLC reversed-phase C 18, 55° C.
Description: Temperature: 55° C. […] Called log P (neutral) in the table.

Myzus persicae = Myzus persicae - spray test; format: in vivo; details: all stages of green peach aphid on Chinese cabbage leaf discs, after 5-6 days
Description: Myzus persicae—Spray Test
• Solvent: 78 parts by weight of acetone • 1.5 parts by weight of dimethylformamide • Emulsifier: alkylaryl polyglycol ether
as §2
Discs of Chinese cabbage leaves (Brassica pekinensis) infested by all stages of the green peach aphid (Myzus persicae) are sprayed with an active compound preparation of the desired concentration.
After 5-6 days, the efficacy in % is determined. 100% means that all the aphids have been killed; 0% means that no aphids have been killed.

Phaedon cochleariae = Phaedon cochleariae - spray test; format: in vivo; details: mustard beetle larvae on Chinese cabbage leaf discs, after 7 days; for efficacy / pest or weed control at 500 g/ha: application rate 500 g/ha
Description: Phaedon cochleariae—Spray Test
as §1, §2
After 7 days, the efficacy in % is determined. 100% means that all the beetle larvae have been killed; 0% means that no beetle larvae have been killed.

Ctenocephalides felis [2] = assay: Ctenocephalides felis - in vitro contact tests with adult cat fleas; format: in vivo; details: application rate 5 μg/cm^2 (500 g/ha); adult cat fleas in coated tubes; after 48 h; dead or moribund
Description: Ctenocephalides felis—In Vitro Contact Tests with Adult Cat Fleas
For the coating of the test tubes, 9 mg of active compound are first dissolved in 1 ml of acetone p.a. and then diluted to the desired concentration with acetone p.a. 250 μl of the solution are distributed homogeneously on the inner walls and the base of a 25 ml test tube by turning and rocking on an orbital shaker (rocking rotation at 30 rpm for 2 h). With 900 ppm active compound solution and internal surface 44.7 cm^2, given homogeneous distribution, an area-based dose of 5 μg/cm^2 is achieved.
After the solvent has evaporated off, the tubes are populated with 5-10 adult cat fleas (Ctenocephalides felis), sealed with a perforated plastic lid and incubated in a horizontal position at room temperature and ambient humidity. After 48 h, efficacy is determined. To this end, the test tubes are stood upright and the fleas are knocked to the base of the tube. Fleas which remain motionless at the base or move in an uncoordinated manner are considered to be dead or moribund.
100% efficacy means that all the fleas were dead or moribund. 0% efficacy means that no fleas were harmed.

Ctenocephalides felis [3] = assay: Ctenocephalides felis - oral test; format: in vivo; details: application rate 100 ppm in citrated cattle blood; adult cat fleas; after 2 days
Description: Ctenocephalides felis—Oral Test • Solvent: dimethyl sulphoxide To produce a suitable active compound preparation, 10 mg of active compound are mixed with 0.5 ml of dimethyl sulphoxide. Dilution with citrated cattle blood gives the desired concentration. About 20 unfed adult cat fleas (Ctenocephalides felis) are placed into a chamber which is closed at the top and bottom with gauze. A metal cylinder whose bottom end is closed with parafilm is placed onto the chamber. The cylinder contains the blood/active compound preparation, which can be imbibed by the fleas through the parafilm membrane. After 2 days, the kill in % is determined. 100% means that all of the fleas have been killed; 0% means that none of the fleas have been killed.

Lucilia cuprina = Lucilia cuprina test; format: in vivo; details: application rate 100 ppm; L1 larvae in minced horsemeat; after 2 days
Description: Lucilia cuprina Test • Solvent: dimethyl sulphoxide To produce a suitable active compound preparation, 10 mg of active compound are mixed with 0.5 ml of dimethyl sulphoxide, and the concentrate is diluted with water to the desired concentration. About 20 L1 larvae of the Australian sheep blowfly (Lucilia cuprina) are transferred into a test vessel containing minced horsemeat and the active compound preparation of the desired concentration. After 2 days, the kill in % is determined. 100% means that all the larvae have been killed; 0% means that no larvae have been killed.

[4] = log P (acidic), HPLC on reversed-phase column (C 18), LC-MS acidic range; format: physicochemical; details: HPLC reversed-phase C 18, 55° C., pH 2.7, 0.1% formic acid/acetonitrile; for chromatographic logP: reversed-phase HPLC column (C 18)
Description: Called log P (HCOOH) in the table.

Musca domestica = Musca domestica test; format: in vivo; details: application rate 100 ppm; adult houseflies, sponge with sugar solution; after 2 days
Description: Musca domestica Test • Solvent: dimethyl sulphoxide To produce a suitable active compound preparation, 10 mg of active compound are mixed with 0.5 ml of dimethyl sulphoxide, and the concentrate is diluted with water to the desired concentration. Vessels containing a sponge treated with sugar solution and the active compound preparation of the desired concentration are populated with 10 adult houseflies (Musca domestica). After 2 days, the kill in % is determined. 100% means that all of the flies have been killed; 0% means that none of the flies have been killed.

[5] = Phaedon cochleariae, foliar, 168 h, read-out: efficacy

Structure (SMILES) | efficacy (Spodoptera frugiperda; application rate 500 g/ha) [%] | log P (neutral) [1] | efficacy (Myzus persicae; application rate 500 g/ha) [%] | efficacy (Phaedon cochleariae) [%] | also measured
CC[S+]([O-])c1ccc(-n2cc(C(F)(F)F)cn2)nc1-c1nc2cc(C(F)(F)F)cnc2n1C (centres unmarked) [Example I-12] | 100 | 4.23 |  |  | 
CCS(=O)(=O)c1ccc(NC(=O)CSC)nc1-c1nc2cc(C(F)(F)F)cnc2n1C [Example I-20] |  | 2.79 | 90 | 100 | 
CCS(=O)(=O)c1ccc(NC(=O)C2CC2)nc1-c1nc2cc(C(F)(F)F)ccc2n1C [Example I-10] | 100 | 2.92 |  | 100 | efficacy (Ctenocephalides felis [2]): 100%; efficacy (kill) (Ctenocephalides felis [3]): 100%; efficacy (kill) (Lucilia cuprina): 95%
CCS(=O)(=O)c1ccc(N)nc1-c1nc2cc(C(F)(F)F)ccc2n1C [Example I-3, 5-(Ethylsulphonyl)-6-[1-methyl-5-(trifluoromethyl)-1H-benzimidazol-2-yl]pyridin-2-amine] |  |  | 100 |  | chromatographic logP [1]: 2.18; pest or weed control at 500 g/ha (Phaedon cochleariae; [5]): 100%
CCS(=O)(=O)c1ccc(-n2cc(Cl)cn2)nc1-c1nc2cc(C(F)(F)F)cnc2n1C [Example I-14] | 100 | 3.9 |  | 100 | efficacy (kill) (Lucilia cuprina): 100%
CCS(=O)(=O)c1ccc(-n2nccn2)nc1-c1nc2cc(C(F)(F)F)cnc2n1C [Example I-23] | 100 | 2.66 | 90 | 100 | 
CCS(=O)(=O)c1ccc(-n2cc(F)cn2)nc1-c1cn2cnc(C(F)(F)F)cc2n1 [Example I-30] |  |  |  |  | log P (acidic) [4]: 3.13
CCS(=O)(=O)c1ccc(-n2ccc(C(F)(F)F)n2)nc1-c1nc2cc(C(F)(F)F)cnc2n1C [Example I-13] | 100 |  |  | 100 | efficacy (kill) (Musca domestica): 80%; efficacy (kill) (Lucilia cuprina): 100%
CCS(=O)(=O)c1ccc(NC(C)=O)nc1-c1cn2cnc(C(F)(F)F)cc2n1 [Example I-32] | 80 | 1.99 | 90 | 100 | 
CCS(=O)(=O)c1ccc(-n2cc(C(F)(F)F)cn2)nc1-c1nc2cc(C(F)(F)F)ccc2n1C [Example I-1, 2-{3-(Ethylsulphonyl)-6-[4-(trifluoromethyl)-1H-pyrazol-1-yl]pyridin-2-yl}-1-methyl-5-(trifluoromethyl)-1H-benzimidazole] | 100 |  |  |  | chromatographic logP [1]: 4.16; pest or weed control at 500 g/ha (Phaedon cochleariae; [5]): 100%
CCS(=O)(=O)c1ccc(NC(=O)C2CC2)nc1-c1nc2cc(C(F)(F)F)cnc2n1C [Example I-16] | 100 | 2.76 | 100 | 100 | 
CCS(=O)(=O)c1ccc(NC(C)=O)nc1-c1nc2cc3c(cc2n1C)OC(F)(F)O3 [Example I-7, N-[6-(2,2-Difluoro-7-methyl-[1,3]dioxolo[4,5-f]benzimidazol-6-yl)-5-ethylsulphonyl-2-pyridyl]acetamide] | 83 |  |  |  | chromatographic logP [1]: 2.42; pest or weed control at 500 g/ha (Phaedon cochleariae; [5]): 100%
CCS(=O)(=O)c1ccc(N)nc1-c1cn2cnc(C(F)(F)F)cc2n1 [Example I-31] | 100 | 1.59 | 90 | 100 | 
Fc1ccc(F)c(-c2cn3cc(C(F)(F)F)ncc3n2)n1 [IX-6, 2-(3,6-Difluoropyridin-2-yl)-6-(trifluoromethyl)imidazo[1,2-a]pyrazine] |  |  |  |  | chromatographic logP [4]: 2.05
CCS(=O)(=O)c1ccc(-n2ccc(C(F)(F)F)n2)nc1-c1cn2cnc(C(F)(F)F)cc2n1 [Example I-29] | 100 |  |  | 100 | 
CCS(=O)(=O)c1ccc(NC(=O)C(C)CSC)nc1-c1nc2cc(C(F)(F)F)cnc2n1C (centres unmarked) [Example I-25] |  |  | 90 | 100 | 
CCS(=O)(=O)c1ccc(-n2ccc(C(F)(F)F)n2)nc1-c1nc2cc(C(F)(F)F)ccc2n1C [Example I-9] | 100 | 4.21 |  |  | efficacy (Myzus persicae; application rate 100 g/ha): 90%; efficacy (kill) (Lucilia cuprina): 100%
CCS(=O)(=O)c1ccc(C(=O)NC)nc1-c1cn2cnc(C(F)(F)F)cc2n1 [Example I-38, 5-(Ethylsulphonyl)-N-methyl-6-[7-(trifluoromethyl)imidazo[1,2-c]pyrimidin-2-yl]pyridine-2-carboxamide] |  |  |  |  | chromatographic logP [4]: 1.95
CCS(=O)(=O)c1ccc(-n2cc(C(F)(F)F)cn2)nc1-c1nc2cc(C(F)(F)F)cnc2n1C [Example I-4, 2-{3-(Ethylsulphonyl)-6-[4-(trifluoromethyl)-1H-pyrazol-1-yl]pyridin-2-yl}-3-methyl-6-(trifluoromethyl)-3H-imidazo[4,5-b]pyridine] | 100 |  |  |  | efficacy (kill) (Musca domestica): 80%; chromatographic logP [1]: 4.04; pest or weed control at 100 g/ha (Phaedon cochleariae; Phaedon cochleariae, foliar, 168 h, application rate 100 g/ha, read-out: efficacy): 83%; efficacy (kill) (Lucilia cuprina): 100%
CCS(=O)(=O)c1ccc(-n2cc(Cl)cn2)nc1-c1cn2cnc(C(F)(F)F)cc2n1 [Example I-17, 2-[6-(4-Chloro-1H-pyrazol-1-yl)-3-(ethylsulphonyl)pyridin-2-yl]-7-(trifluoromethyl)imidazo[1,2-c]pyrimidine] | 100 |  |  |  | chromatographic logP [1]: 3.46; pest or weed control at 500 g/ha (Phaedon cochleariae; [5]): 100%
CCS(=O)(=O)c1ccc(NC(C)=O)nc1-c1nc2cc(C(F)(F)F)cnc2n1C [Example I-5, N-{5-(Ethylsulphonyl)-6-[3-methyl-6-(trifluoromethyl)-3H-imidazo[4,5-b]pyridin-2-yl]pyridin-2-yl}acetamide] |  |  | 90 |  | efficacy (Spodoptera frugiperda; application rate 100 g/ha): 100%; chromatographic logP [1]: 2.3; pest or weed control at 500 g/ha (Phaedon cochleariae; [5]): 100%
CCS(=O)(=O)c1ccc(-n2cc(F)cn2)nc1-c1nc2cc(C(F)(F)F)cnc2n1C [Example I-24] | 100 | 3.55 | 90 | 100 | 
